Results: patent US20030013660A1, “Dioxolane analogs for improved inter-cellular delivery” (Shire BioChem Inc., priority 2000, published 2003)
Read-outs that look alike come from different tables or passages of the source.

Tests used:
SF-268 = experiment: 3H-TdR (3H-thymidine) incorporation assay at 72 hr; format: cell-based, Human; conditions: Homo sapiens, SF-268, read-out: IC50 SF-268 24 h, 24 h drug exposure, wash, another 48 hr; 3H-TdR incorporation at 72 hr
MCF-7 = experiment: 3H-TdR (3H-thymidine) incorporation assay at 72 hr; format: cell-based, Human; conditions: 3H-TdR incorporation at 72 hr
CEM/dCK- [1] = experiment: 3H-TdR (3H-thymidine) incorporation assay at 72 hr; format: cell-based; conditions: for IC50: Homo sapiens, CCRF-CEM, read-out: IC50 CEM/dCK- 24 h, 24 h drug exposure, wash, another 48 hr, deoxycytidine kinase-deficient CCRF-CEM; for Factor* (Resistance Factor = Ratio of dCK- on Wild-type CCRF-CEM): ratio of IC50 CEM/dCK- to CCRF-CEM, 24 h
Procedure: (§1) Table of IC50 Values (μM) for Controls
(§2) Exposition of 24 hr to drug, wash, incubated for another 48 hr (total of 72 hr assay)
(§3) (3H-Thymidine Incorporation Assay)

CCRF-CEM = experiment: 3H-TdR (3H-thymidine) incorporation assay at 72 hr; format: cell-based; conditions: Homo sapiens, CCRF-CEM, read-out: IC50 CCRF-CEM 24 h, 24 h drug exposure, wash, another 48 hr; 3H-TdR incorporation at 72 hr
Procedure: as §1, §2, §3

H-460 [2] = experiment: 3H-TdR (3H-thymidine) incorporation assay at 72 hr; format: cell-based, Human; conditions: 3H-TdR incorporation at 72 hr
H-460 [3] = experiment: 3H-TdR incorporation at 72 hr (24 hr drug exposure, wash, 48 hr); format: cell-based, Human; conditions: read-out: IC50 in μM (3H-TdR incorporation at 72 hr) H-460 24 h, H-460 Human Lung Carcinoma, 72 hr assay
Procedure: as §2, §3

CEM/dCK- [4] = experiment: as above; format: cell-based; conditions: ratio of IC50 CEM/dCK- to IC50 CCRF-CEM
Procedure: as §2, §3

[5] = Homo sapiens, MCF7, read-out: IC50 MCF-7 24 h, 24 h drug exposure, wash, another 48 hr
[6] = Homo sapiens, NCI-H460, read-out: IC50 H-460 24 h, 24 h drug exposure, wash, another 48 hr

Structure (SMILES)	IC50 (SF-268) [nM]	IC50 (MCF-7; [5]) [nM]	IC50 (CEM/dCK- [1]) [nM]	Factor* (Resistance Factor = Ratio of dCK- on Wild-type CCRF-CEM) (CEM/dCK- [1])	IC50 (CCRF-CEM) [nM]	IC50 (H-460 [2]; [6]) [nM]	IC50 (MCF-7; read-out: IC50 MCF-7 24 h, 24 h drug exposure, wash, another 48 hr, bis trifluoroacetate salt) [nM]	IC50 (H-460 [2]; read-out: IC50 H-460 24 h, 24 h drug exposure, wash, another 48 hr, bis trifluoroacetate salt) [nM]	IC50 (H-460 [3]) [µM]	Factor* (Resistance Factor = Ratio of dCK- on Wild-type CCRF-CEM) (CEM/dCK- [4])
CCCCC(CC)C(=O)OC[C@H]1OC[C@@H](n2ccc(/N=C/N(C)C)nc2=O)O1 (stereo partly drawn) [Compound 65, (2S,4S)-2-(2″-ETHYL- HEXANOICOXYMETHYL)-4- (4′-N,N- DIMETHYLAMINOMETHYLENE- CYTOSIN-1′-YL)-1,3- DIOXOLANE]	33	12	26000	6,667	3.9	11				
O=c1nc(NC2Sc3ccccc3S2)ccn1[C@@H]1CO[C@H](CO)O1 [Compound 136, 4-(BENZO[1,3]DITHIOL-2- YLAMINO)-1-(2- HYDROXYMETHYL- [1,3]DIOXOLAN-4-YL)- 1H!PYRIMIDIN-2-ONE]	3000	12000	> 100000	>25	4000	9000				
CCCCCCOC(=O)Nc1ccn([C@@H]2CO[C@H](COC(=O)OCCCCCC)O2)c(=O)n1 [Compound 150, CARBONIC ACID HEXYL ESTER 4-(4- HEXYLOXYCARBONYLAMINO- 2-OXO-2H-PYRIMIDIN-1- YL)-[1,3]DIOXOLAN-2- YLMETHYL ESTER]	1300	1600	90000	692	130	960				
O=C(Nc1ccn([C@@H]2CO[C@H](CO)O2)c(=O)n1)OCCCCCl [Compound 160, [1-(2-HYDROXYMETHYL- [1,3]DIOXOLAN-4-YL)-2- OXO-1,2-DIHYDRO- PYRIMIDIN-4-YL]- CARBAMIC ACID 4-CHLORO- BUTYL ESTER]	1200	360	> 100000	>278	360	920				
Nc1ccn([C@@H]2CO[C@H](COC(=O)CCCCCNCc3ccccc3)O2)c(=O)n1.O=C(O)C(F)(F)F.O=C(O)C(F)(F)F (stereo in doubt) [Compound 83, 6-Benzylamino-hexanoic acid 4-(4-amino-2-oxo-2H-pyrimidin-1-yl)-[1,3]dioxolan-2-ylmethyl ester bis trifluoroacetate salt]	260		> 100000	4,545	22		83	54		
CC(C)(C)OC(=O)N(CCCCCC(=O)Nc1ccn([C@@H]2CO[C@H](CO)O2)c(=O)n1)Cc1ccccc1 [Compound 77, Benzyl-{5-[1-(2-hydroxymethyl-[1,3]dioxolan-4-yl)-2-oxo-1,2-dihydro-pyrimidin-4-ylcarbamoyl]-pentyl}-carbamic acid tert-butyl ester]	380	30	74000	1,370	54	59				
Nc1ccn([C@@H]2CO[C@H](COC(=O)c3ccc([N+](=O)[O-])cc3)O2)c(=O)n1 [Compound 204, 4-NITRO-BENZOIC ACID 4- (4-AMINO-2-OXO-2H- PYRIMIDIN-1-YL)- [1,3]DIOXOLAN-2-YL METHYL ESTER]									0.015	1600
CCCCCCOC(=O)OC[C@H]1OC[C@@H](n2ccc(N)nc2=O)O1 [Compound 126, CARBONIC ACID 4-(4- AMINO-2-OXO-2H- PYRIMIDIN-1-YL)- [1,3]DIOXOLAN-2- YLMETHYL ESTER HEXYL ESTER]	8.5	2	13000	8,125	1.6	4.1				
CCCCC(OC)(OC)OC[C@H]1OC[C@@H](n2ccc(N)nc2=O)O1 [Compound 141, 4-AMINO-1-[2-(1,1- DIMETHOXY- PENTYLOXYMETHYL)- [1,3]DIOXOLAN-4-YL]-1H- PYRIMIDIN-2-ONE]	40	66	69000	3,632	19	34				
